Test results reported in ChEMBL document CHEMBL2321677, “Cyclic analogs of galanin and neuropeptide Y by hydrocarbon stapling” (Bioorg Med Chem, 2013).
Activity calls are given as the source filed them. No cut-off for these calls is given here. Bridge positions count the residues as written; N and C are the ends. Square brackets hold non-standard residues; d marks the D form. Peptide text beside a SMILES is read from it. * marks the point of attachment. X1 = CC(=O)N(C(=O)CCCCCN)[C@@H](C)C(=O)*; S5 = C=CCCC[C@](C)(N)C(=O)O; Sar = CNCC(=O)O

Columns and labels:
[1] = Half life in rat serum by HPLC analysis; format: ADME, cell-free
Mus musculus [2] = assay: Neurotoxicity against CF1 albino mouse assessed as motor impairment at 0.1 nmol/5 ul, icv after 0.5 hrs by rotarod test; format: toxicity, organism-based; details: in vivo, icv_or_intrathecal
Mus musculus [3] = assay: Anticonvulsant activity in CF1 albino mouse assessed as protection against 6Hz partial psychomotor seizure at 1 nmol/5 ul, icv after 0.5 hrs relative to control; format: functional, organism-based
[4] = n-octanol-water partition coefficient, log D of the compound by shake-flask method; format: physicochemical
[5] = target: T1, Neuropeptide Y receptor type 2 (Homo sapiens, UniProt P49146); assay: Agonist activity at human NPY2R expressed inj CHOK1 cells assessed as inhibition of forskolin-stimulated cAMP production after 30 mins by luminescence assay; format: functional, cell-based, CHO-K1
T1 sequence (P49146 whole entry): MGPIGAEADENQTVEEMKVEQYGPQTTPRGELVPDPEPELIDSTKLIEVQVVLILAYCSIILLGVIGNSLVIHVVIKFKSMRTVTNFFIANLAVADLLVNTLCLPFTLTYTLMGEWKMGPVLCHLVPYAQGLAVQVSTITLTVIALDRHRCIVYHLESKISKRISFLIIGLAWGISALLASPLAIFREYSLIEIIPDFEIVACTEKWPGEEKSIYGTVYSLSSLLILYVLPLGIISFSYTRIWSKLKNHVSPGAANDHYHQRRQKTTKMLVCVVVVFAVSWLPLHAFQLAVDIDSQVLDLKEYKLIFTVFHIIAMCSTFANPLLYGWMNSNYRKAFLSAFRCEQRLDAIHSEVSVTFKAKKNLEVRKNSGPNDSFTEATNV

[6] = n-octanol-water partition coefficient, log D of the compound by HPLC capacity factor method; format: physicochemical
Galanin receptor type 2 = target: T2, Galanin receptor type 2 (Homo sapiens, UniProt O43603); assay: Displacement of euporium-galanin from human GalR2 after 1.5 hrs by DELFIA assay
T2 sequence (O43603 whole entry): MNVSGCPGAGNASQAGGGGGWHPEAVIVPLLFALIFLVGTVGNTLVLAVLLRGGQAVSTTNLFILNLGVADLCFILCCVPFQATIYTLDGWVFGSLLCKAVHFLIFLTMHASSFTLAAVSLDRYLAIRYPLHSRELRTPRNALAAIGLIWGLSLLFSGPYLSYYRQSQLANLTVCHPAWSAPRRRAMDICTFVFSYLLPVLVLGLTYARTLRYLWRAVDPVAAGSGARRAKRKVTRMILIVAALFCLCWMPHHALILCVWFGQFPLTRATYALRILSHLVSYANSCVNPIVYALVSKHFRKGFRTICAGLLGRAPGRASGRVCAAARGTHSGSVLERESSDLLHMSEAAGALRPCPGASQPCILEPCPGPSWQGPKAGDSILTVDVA

Galanin receptor type 1 = target: T3, Galanin receptor type 1 (Homo sapiens, UniProt P47211); assay: Displacement of euporium-galanin from human GalR1 after 1.5 hrs by DELFIA assay
T3 sequence (P47211 whole entry): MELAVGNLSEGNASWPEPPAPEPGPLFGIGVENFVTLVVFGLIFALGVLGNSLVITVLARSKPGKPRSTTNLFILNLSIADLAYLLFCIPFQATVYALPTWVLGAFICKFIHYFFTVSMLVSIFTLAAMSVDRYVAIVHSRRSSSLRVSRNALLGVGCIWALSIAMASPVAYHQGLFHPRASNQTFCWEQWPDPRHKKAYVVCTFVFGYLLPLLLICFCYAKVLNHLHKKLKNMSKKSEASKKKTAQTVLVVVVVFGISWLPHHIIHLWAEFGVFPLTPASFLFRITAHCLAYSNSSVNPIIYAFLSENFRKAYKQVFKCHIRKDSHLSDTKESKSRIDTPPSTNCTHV

| half-life [1] [h] | logD [4] | EC50 [5] [nM] | chromatographic logD [6] | Ki (Galanin receptor type 2) [nM] | Ki (Galanin receptor type 1) [nM] | Structure (SMILES) | Activity (Mus musculus [2]) | Activity (Mus musculus [3]) |
| --- | --- | --- | --- | --- | --- | --- | --- | --- |
| 2.7 | -0.71 |  |  |  |  | CC(=O)N[C@@H](C)C(=O)N[C@@H](CCCNC(=N)N)C(=O)N[C@@H](Cc1cnc[nH]1)C(=O)N[C@@H](Cc1ccc(O)cc1)C(=O)N[C@@]1(C)CCC/C=C/CCC[C@@](C)(C(=O)N[C@@H](CCCNC(=N)N)C(=O)N[C@@H](CCC(N)=O)C(=O)N[C@@H](CCCNC(=N)N)C(=O)N[C@@H](Cc2ccc(O)cc2)C(N)=O)NC(=O)[C@H](CC(C)C)NC(=O)[C@H](CC(C)C)NC(=O)[C@H](CC(N)=O)NC1=O (Ac-ARHY[S5]NLL[S5]RQRY-NH2; staple (E) 5-9) | Toxic | Active |
| 0.13 |  |  |  |  |  | CC(C)C[C@H](NC(=O)[C@H](CC(C)C)NC(=O)[C@H](Cc1ccc(O)cc1)NC(=O)CNC(=O)[C@H](C)NC(=O)[C@H](CO)NC(=O)[C@H](CC(N)=O)NC(=O)[C@H](CC(C)C)NC(=O)[C@@H](NC(=O)[C@H](Cc1c[nH]c2ccccc12)NC(=O)CN)[C@@H](C)O)C(=O)NCC(=O)N1CCC[C@H]1C(=O)N[C@@H](Cc1cnc[nH]1)C(=O)N[C@@H](C)C(=O)N[C@H](C(N)=O)C(C)C | Non-toxic | inactive |
|  |  |  |  |  |  | CC[C@H](C)[C@H](NC(=O)[C@H](Cc1ccc(O)cc1)NC(=O)[C@H](Cc1c[nH]cn1)NC(=O)[C@H](CCCN=C(N)N)NC(=O)[C@H](CC(C)C)NC(=O)[C@H](C)NC(=O)[C@H](CO)NC(=O)[C@H](Cc1ccc(O)cc1)NC(=O)[C@H](Cc1ccc(O)cc1)NC(=O)[C@H](CCCN=C(N)N)NC(=O)[C@H](C)NC(=O)[C@H](CC(C)C)NC(=O)[C@H](CC(=O)O)NC(=O)[C@H](CCC(=O)O)NC(=O)[C@H](C)NC(=O)[C@@H]1CCCN1)C(=O)N[C@@H](CC(N)=O)C(=O)N[C@@H](CC(C)C)C(=O)N[C@H](C(=O)N[C@H](C(=O)N[C@@H](CCCN=C(N)N)C(=O)N[C@@H](CCC(N)=O)C(=O)N[C@@H](CCCN=C(N)N)C(=O)N[C@@H](Cc1ccc(O)cc1)C(=O)O)[C@@H](C)O)[C@@H](C)CC | Non-toxic | inactive |
| 0.57 | -2.13 |  |  |  |  | CC[C@H](C)[C@H](NC(=O)[C@H](Cc1ccc(O)cc1)NC(=O)[C@H](Cc1cnc[nH]1)NC(=O)[C@H](CCCNC(=N)N)NC(=O)[C@H](C)N(C(C)=O)C(=O)CCCCCN)C(=O)N[C@@H](CC(N)=O)C(=O)N[C@@H](CC(C)C)C(=O)N[C@H](C(=O)N[C@H](C(=O)N[C@@H](CCCNC(=N)N)C(=O)N[C@@H](CCC(N)=O)C(=O)N[C@@H](CCCNC(=N)N)C(=O)N[C@@H](Cc1ccc(O)cc1)C(N)=O)[C@@H](C)O)[C@@H](C)CC (X1-RHYINLITRQRY-NH2) |  |  |
| 1.8 | 0.08 | 403 |  |  |  | CC[C@H](C)[C@H](NC(=O)[C@H](Cc1ccc(O)cc1)NC(=O)[C@H](Cc1cnc[nH]1)NC(=O)[C@H](CCCN=C(N)N)NC(=O)[C@H](C)N(C(=O)CCCCCN)C(=O)[C@]1(C)CCC/C=C\CCC[C@](C)(NC(=O)[C@H](Cc2ccc(O)cc2)NC(C)=O)C(=O)N[C@@H](CCCCN)C(=O)N[C@@H](CCCCN)C(=O)N[C@@H](CCCCN)C(=O)N1)C(=O)N[C@@H](CC(N)=O)C(=O)N[C@@H](CC(C)C)C(=O)N[C@@H](CC(C)C)C(=O)N[C@H](C(=O)N[C@@H](CCCN=C(N)N)C(=O)N[C@@H](CCC(N)=O)C(=O)N[C@@H](CCCN=C(N)N)C(=O)N[C@@H](Cc1ccc(O)cc1)C(N)=O)[C@@H](C)O | Non-toxic |  |
| 6.4 |  |  | 0.71 | 119 | 37.5 | CNCC(=O)N[C@@H](Cc1c[nH]c2ccccc12)C(=O)N[C@H](C(=O)N[C@@H](CC(C)C)C(=O)N[C@@H](CC(N)=O)C(=O)N[C@@H](CO)C(=O)N[C@@]1(C)CCC/C=C/CCC[C@@](C)(C(=O)NCC(=O)N2CCC[C@H]2C(=O)N[C@@H](CCCCN)C(=O)N[C@@H](CCCCN)C(=O)N[C@@H](CCCCN)C(=O)N[C@@H](CCCCN)C(N)=O)NC(=O)[C@H](CC(C)C)NC(=O)[C@H](Cc2ccc(O)cc2)NC(=O)CNC1=O)[C@@H](C)O (H-[Sar]WTLNS[S5]GYL[S5]GPKKKK-NH2; staple (E) 7-11) | Non-toxic | Active |
| 15.7 |  |  | 0.78 | 15.6 | 3.8 | CNCC(=O)N[C@@H](Cc1c[nH]c2ccccc12)C(=O)N[C@H](C(=O)N[C@@H](CC(C)C)C(=O)N[C@@H](CC(N)=O)C(=O)N[C@@H](CO)C(=O)N[C@@H](C)C(=O)NCC(=O)N[C@@H](Cc1ccc(O)cc1)C(=O)N[C@@H](CC(C)C)C(=O)N[C@@H](CC(C)C)C(=O)NCC(=O)N1CCC[C@H]1C(=O)N[C@@]1(C)CCC/C=C\CCC[C@@](C)(C(=O)N[C@@H](CCCCN)C(N)=O)NC(=O)[C@H](CCCCN)NC(=O)[C@H](CCCCN)NC(=O)[C@H](CCCCN)NC1=O)[C@@H](C)O (H-[Sar]WTLNSAGYLLGP[S5]KKK[S5]K-NH2; staple (Z) 14-18) | Non-toxic | Active |
|  |  |  |  |  |  | CC[C@H](C)[C@H](NC(=O)[C@H](Cc1ccc(O)cc1)NC(=O)[C@H](Cc1cnc[nH]1)NC(=O)[C@H](CCCNC(=N)N)NC(=O)[C@H](C)N(C(=O)CCCCCN)C(=O)[C@]1(C)CCC/C=C\CCC[C@](C)(NC(=O)[C@H](Cc2ccc(O)cc2)NC(C)=O)C(=O)N[C@@H](CCCCN)C(=O)N[C@@H](CCCCN)C(=O)N[C@@H](CCCCN)C(=O)N1)C(=O)N[C@@H](CC(N)=O)C(=O)N[C@@H](CC(C)C)C(=O)N[C@@H](CC(C)C)C(=O)N[C@H](C(=O)N[C@@H](CCCNC(=N)N)C(=O)N[C@@H](CCC(N)=O)C(=O)N[C@@H](CCCNC(=N)N)C(=O)N[C@@H](Cc1ccc(O)cc1)C(N)=O)[C@@H](C)O |  | Active |
